Measured values as given in patent US10047105B2, “Gyrase inhibitors” (Merck Sharp & Dohme Corp., priority 2009, dated 2018).
≈ marks a conversion by molar mass, not a printed value.

What was measured:
Assay type in all cases: cell-based
[1] = tested on: S. aureus ATCC 13709; test: MIC, antibacterial potency, S. aureus; settings: for MIC: Staphylococcus aureus, ATCC13709, S. aureus
[2] = tested on: S. aureus ATCC 13709 (SA + serum); test: MIC, S. aureus + 20% mouse serum; settings: Staphylococcus aureus, ATCC13709; S. aureus + serum (20% mouse serum); read-out: Antibacterial Potency MIC
[3] = tested on: S. pneumoniae ATCC 51916; test: MIC, S. pneumoniae; settings: for MIC: Streptococcus pneumoniae, ATCC51916, S. pneumoniae, read-out: Antibacterial Potency MIC
[4] = tested on: H. influenzae ATCC 49247; test: MIC, H. influenzae; settings: Haemophilus influenzae, ATCC49247, read-out: Antibacterial Potency MIC
[5] = tested on: E. coli 8 ATCC 25922; test: MIC, E. coli 8 (wt); settings: for MIC: Escherichia coli, ATCC25922, E. coli (wt), read-out: Antibacterial Potency MIC
[6] = tested on: E. coli ATCC 25922 (EC8 + serum); test: MIC, E. coli + 20% mouse serum; settings: Escherichia coli, ATCC25922; E. coli + serum (20% mouse serum); read-out: Antibacterial Potency MIC
[7] = tested on: E. coli Δtolc BW25113 Δtolc; test: microbe, parasite or virus in culture; settings: Escherichia coli, BW25113, read-out: Antibacterial Potency MIC
[8] = tested on: E. coli imp Benson BAS849; test: microbe, parasite or virus in culture; settings: Escherichia coli, read-out: Antibacterial Potency MIC
[9] = tested on: K. pneumoniae 11; test: MIC, K. pneumoniae 11; settings: Klebsiella pneumoniae, read-out: Antibacterial Potency MIC
[10] = tested on: K. pneumoniae 101; test: MIC, K. pneumoniae 101; settings: Klebsiella pneumoniae, read-out: Antibacterial Potency MIC
[11] = tested on: A. baumannii ATCC 19606; test: MIC, A. baumannii; settings: Acinetobacter baumannii, ATCC19606, read-out: Antibacterial Potency MIC
[12] = tested on: P. aeruginosa ATCC 15692; test: MIC, P. aeruginosa (wt); settings: Pseudomonas aeruginosa, ATCC15692, read-out: Antibacterial Potency MIC

Compound: CCc1[nH]c2nc(Sc3cnc4ccc[n+]([O-])c4c3)nc(N3CC[C@@H](N)C3)c2c1Cl [701,008]
- MIC [1]: ≤ 0.5 µg/mL
- MIC [2]: ≤ 0.5 µg/mL
- MIC [3]: 1 µg/mL (≈ 2.26 µM)
- MIC [4]: 2 µg/mL (≈ 4.53 µM)
- MIC [5]: 4 µg/mL (≈ 9.05 µM)
- MIC [6]: 2 µg/mL
- MIC [7]: ≤ 0.5 µg/mL
- MIC [8]: 1 µg/mL (≈ 2.26 µM)
- MIC [9]: 32 µg/mL (≈ 72.4 µM)
- MIC [10]: ≤ 0.5 µg/mL
- MIC [11]: 8 µg/mL (≈ 18.1 µM)
- MIC [12]: 16 µg/mL (≈ 36.2 µM)

Compound: CCc1[nH]c2nc(Oc3cncnc3)nc(Oc3cc(O)cc(C#N)c3)c2c1Br [701249-2]
- MIC, SA ([1]; S. aureus (SA), in µg/mL): <=0.5
- MIC Spn52 ([3]; S. pneumoniae (Spn52), in µg/mL): <=0.5
- MIC EC8 ([5]; E. coli 8 (EC8)): 4 µg/mL (≈ 8.83 µM)

Compound: CCc1[nH]c2nc(Sc3cnc4ccc[n+]([O-])c4c3)nc(N3CC4C(N)C4C3)c2c1Cl (stereo not drawn) [compound 701009]
- MIC [1]: ≤ 0.5 µg/mL
- MIC [2]: ≤ 0.5 µg/mL
- MIC [3]: ≤ 0.5 µg/mL
- MIC [4]: 2 µg/mL (≈ 4.41 µM)
- MIC [5]: 2 µg/mL (≈ 4.41 µM)
- MIC [6]: 4 µg/mL
- MIC [7]: ≤ 0.5 µg/mL
- MIC [8]: ≤ 0.5 µg/mL
- MIC [9]: 32 µg/mL (≈ 70.5 µM)
- MIC [10]: ≤ 0.5 µg/mL
- MIC [11]: 4 µg/mL (≈ 8.81 µM)
- MIC [12]: 4 µg/mL (≈ 8.81 µM)
